Source: US10577381B2, “Prodrugs of 2,4-pyrimidinediamine compounds and their uses” (Rigel Pharmaceuticals, Inc., priority 2005, dated 2020)
Converted amounts (≈) assume the structure as drawn. “Also recorded” adds a separate entry of the source. Like-named read-outs stand apart in the source and are kept apart here.

How the values were obtained:
cytokines = assay: FcεRI-dependent production and release of cytokines; type: cell-based; details: Homo sapiens; range over cytokines; read-out: EC50, FcεRI-dependent production and release of all cytokines tested
[1] = GLP mutagenicity and clastogenicity studies (Ames, chromosomal aberration, mouse micronucleus)
Description: (§1) GLP toxicology studies included negative mutagenicity and clastogenicity studies (Ames, chromosomal aberration, and mouse micronucleus). […] The No Observed Adverse Effect Level (NOAEL) is 10-30 mg/kg/day for rats and 100 mg/kg/day for monkeys.

[2] = test system: Cord-Blood Derived Primary Human Mast Cells (CHMC); assay: FcεRI-dependent activation of CHMC, tryptase released upon degranulation; type: cell-based; details: Mast cell, activity of tryptase released upon degranulation
LTC4 = assay: FcεRI-dependent production and release of LTC4; type: cell-based; details: Homo sapiens
[3] = Safety pharmacology: cardiovascular study; type: in vivo; details: 50 mg/kg
Description: as §1

[4] = test system: collagen-induced arthritis; assay: Collagen-induced arthritis (CIA); type: in vivo, Syngeneic LOU rats
Description: One of the experimental models for IC-mediated tissue injury is the CIA in rodents (Kleinau et al., 2000, J. Exp. Med. 191:1611-1616). Injection of type II collagen (CII) into rodents produces an immune reaction that characteristically involves inflammatory destruction of cartilage and bone of the distal joints with concomitant swelling of surrounding tissues. CIA in rats is commonly used to evaluate compounds that might be of potential use as drugs for treatment of rheumatoid arthritis and other chronic inflammatory conditions and is induced in susceptible strains of either mice or rats by injection of CII in incomplete Freund's adjuvant (IFA). Administration of this emulsion gives rise to polyarthritis, characterized by synovial hyperplasia, infiltration of mononuclear cells, pannus formation, and destruction of cartilage and bone. […] Syngeneic LOU rats were immunized on Day 0 with native chicken CII/IFA. Oral treatment began at the onset of arthritis symptoms (Day 10). […] Hind limbs were scored daily for clinical arthritis severity using a standardized method based on the degree of joint inflammation. High resolution digital radiographs of hind limbs were obtained at the conclusion of the study (Day 28). These limbs were also analyzed for histopathologic changes. IgG antibodies to native CII were measured in quadruplicate by ELISA. […] Brahn. 2004). Blinded composite histopathologic studies confirmed the regression of pannus and erosions: […] Antibodies to native CII were not decreased in Compound 1-treated rats.

[5] = test system: IC-mediated vascular edema (Arthus reaction); assay: Reverse Passive Arthus (RPA) reaction; type: in vivo, rat
Description: IC-mediated acute inflammatory tissue injury is implicated in a variety of human autoimmune diseases, including vasculitis, serum sickness, systemic lupus erythematosus, RA, and glomerulonephritis. The classical experimental model for IC-mediated tissue injury is the Reverse Passive Arthus (RPA) reaction. Intravenous injection of antigen (ovalbumin, OVA) following intradermal injection of antibodies specific to OVA (rabbit anti-OVA IgG) results in perivascular deposition of IC and a rapid inflammatory response characterized by edema, neutrophil infiltration, and hemorrhage at the injection sites (Szalai, et al., 2000, J. Immunol. 164(1):463-468).

[6] = monkey, in vivo
Description: as §1

CHMCs = assay: Ionomycin-induced degranulation of CHMCs; type: cell-based, Human
[7] = rat, in vivo
[8] = Water solubility in aqueous buffer; type: physicochemical
[9] = test system: collagen antibody-induced arthritis; assay: Collagen antibody-induced arthritis (CAIA); type: in vivo, Balb/c mice
Description: This passive model differs from the traditional rodent collagen-induced arthritis (CIA) in that disease symptoms appear quickly (developing within 24-48 hrs after an IV-injection of antibodies), arthritis is inducible in both CIA-susceptible and CIA-resistant mouse strains, and it allows evaluation of inflammation that is independent of antibody production. CAIA was induced in Balb/c mice by intravenous injection of Arthrogen-CIA® Monoclonal Antibody Blend (Chemicon International, Inc., Temecula, Calif.) via the tail vein, followed 2 days later by an intraperitoneal injection of LPS. […] The severity of the arthritis in hind-paws was scored daily (scale of 0-4 per paw, sum of scores for both hind paws).

[10] = Safety pharmacology: CNS (Irwin) study; type: in vivo; details: 50 mg/kg
Description: as §1

[11] = Stability under acidic and neutral conditions at 37° C.; type: physicochemical; details: FIG. 8
[12] = Stability / hydrolysis in rat plasma; type: in vitro ADME; details: FIG. 10
Description: (§2) Although phosphate-containing prodrugs suitable for oral administration are of interest, skilled artisans will appreciate that prodrugs including phosphate-containing progroups R^p can be administered via other routes of administration, as phosphatases are distributed throughout the body. […] Thus, the only requirement is that the particular phosphate-containing progroup R^P selected should be removable under the conditions of intended use.
The presence of Phosphatase activity in rat plasma was confirmed using p-nitrophenyl phosphate—a known substrate for phosphatase.

[13] = Conversion of prodrug to drug in microsome preparations; type: in vitro ADME, rat
Description: as §2

[14] = Pharmacokinetics after IV and oral dosing in rats; type: in vivo, Sprague-Dawley rats
Description: Prodrug Compound 4 was tested for oral bioavailability. For the study, the prodrug was dissolved in various vehicles (e.g. PEG 400 solution and CMC suspension) for intravenous and oral dosing in the rats. […] Following administration of the prodrug and/or drug, plasma samples were obtained and extracted. The plasma concentrations of the prodrug and/or drug were determined by high performance liquid chromatography/tandem mass spectrometry (LC/MS/MS) methods. Pharmacokinetic analyses were performed based on the plasma concentration data. The pharmacokinetic parameters of interest include Clearance (CL), Volume of distribution at steady-state (Vss), terminal half-life (t1/2), and oral bioavailability (% F).
Referring to FIG. 4, PK profiles are shown for IV and PO administration in Spraque-Dawley rats. For IV administration, Compound 4 was dissolved in PEG-400 and administered at a dose of 1 mg/kg.
FIG. 5 summarizes the PK parameters for the study described in FIG. 4.
FIG. 11 illustrates the absorption of prodrug Compound 4 from different vehicles.

[15] = water solubility, aqueous buffer under physiological conditions, read-out: Solubility

COc1cc(Nc2ncc(F)c(Nc3ccc4c(n3)NC(=O)C(C)(C)O4)n2)cc(OC)c1OC [Compound 1, N4-(2,2-dimethyl-3-oxo-4H-5-pyrido[1,4]oxazin-6-yl)-5-fluoro-N2-(3,4,5-trimethoxyphenyl)-2,4-pyrimidinediamine]
EC50 (cytokines): 0.158 to 0.462 µM | mutagenicity and clastogenicity [1]: negative | EC50 [2]: ~0.043 µM | EC50 (LTC4): 0.039 µM | cardiovascular effect [3]: slight reduction in heart rate and increase in RR interval | arthritis severity ([4]; 30 mg/kg q.d. p.o., evident within 7 days after initiation of therapy, p<0.05): significant reduction | Mean modified Mankin scores (histopathology, pannus and erosions) ([4]; 30 mg/kg, p<0.001 vs vehicle): 3.7±0.9 | clinical score ([4]; Day 28, 30 mg/kg q.d. p.o., p<0.001 vs vehicle): 2.54±0.98 | joint damage, blinded radiographs ([4]; Day 28, p<0.02 vs vehicle): 1.63±0.67 | inhibition at 10 mg/kg ([5]; Rattus norvegicus, 10 mg/kg oral, compared with vehicle control, read-out: inhibition of extravascular leakage of Evans blue dye (OD610) from tissue biopsies): 80% | cutaneous RPA reaction and inflammatory edema ([5]; single oral treatment one hour prior to antigen/antibody administration): reduced the cutaneous RPA reaction and inflammatory edema in a dose-dependent manner | effect on hematology and bone marrow cellularity [6]: reversible effect | inhibition of ionomycin-induced degranulation (CHMCs): does not inhibit | CD45RA+ cells (immunophenotyping) [7]: significant increase | Histopathology [7]: mild reductions in marrow cellularity | effect on hematology, liver transaminase (mild), spleen and thymus size, bone marrow cellularity [7]: reversible effect | humoral immunity, anti-KLH antibody assessment [7]: no evidence for untoward effects | percentage of CD3+ cells (immunophenotyping) [7]: significant decrease | solubility ([8]; aqueous buffer, phosphate buffer at pH=7.5, data not shown, read-out: measured solubility): < 1 µg/mL | solubility [8, 15]: 1 to 2 µg/mL (≈ 2.13 to 4.25 µM) | arthritis severity, disease incidence, time of onset ([9]; lower dose levels, differences not significant (p>0.05)): trend toward reduced arthritis severity, disease incidence, and time of onset | clinical arthritis vs vehicle ([9]; oral, b.i.d., p<0.05): significantly reduced clinical arthritis | behavioral effect [10]: slight effect on a few behavioral parameters

COc1cc(Nc2ncc(F)c(Nc3ccc4c(n3)N(COP(=O)(O)O)C(=O)C(C)(C)O4)n2)cc(OC)c1OC [Compound 4, N4-(2,2-dimethyl-4-[(dihydrogenphosphonoxy)methyl]-3-oxo-5-pyrido[1,4]oxazin-6-yl)-5-fluoro-N2-(3,4,5-trimethoxyphenyl)-2,4-pyrimidinediamine]
stability of prodrug [11]: stable | stability in rat plasma, hydrolysis to drug Compound 1 [12]: metabolize to the active drug Compound 1; also recorded: unstable | Solubility of prodrug relative to active drug Compound 1 ([8]; same conditions, Compound 4 vs Compound 1): approximately 2000 times | solubility [8, 15]: > 5000 µg/mL | conversion of prodrug Compound 4 to drug Compound 1 ([13]; microsomal preparations obtained from Xenotech, FIG. 9): failed to convert | conversion of prodrug Compound 4 to drug Compound 1 ([13]; rat intestinal and hepatic microsomes from a different source (data not shown)): metabolize to the active drug Compound 1; also recorded: conversion of Compound 4 to Compound 1 was observed | plasma levels of drug metabolite Compound 1 after dosing prodrug ([14]; Compound 4 given orally in PEG-400): high levels | disappearance / clearance of prodrug from plasma ([14]; IV, 1 mg/kg in PEG-400, 1 mg/kg): Rapid disappearance; also recorded: rapidly cleared | systemic presence of prodrug after oral dosing ([14]; given orally in PEG-400): no prodrug Compound 4 was present systemically | AUC/dose of drug Compound 1 exposure (absorption), prodrug vs drug ([14]; oral, Compound 1 2.5 mg/kg in PEG-400 vs Compound 4 4 mg/kg in PEG-400, FIG. 6): nearly identical | absorption from different vehicles ([14]; oral, rats, PEG-400 and carboxymethylcellulose solutions, powder in hard gelatin capsules, FIG. 11): absorbed equally well; also recorded: not dependent on formulation
